Measurements as given in patent US11142525B2 (Pfizer Inc., priority 2018, dated 2021).
pIC50, pKi: −log10 of the molar value. Where a name gives a salt, the structure may show the parent alone. Read-outs that look alike come from different tables or passages of the source.

Tests used:
[1] = tested on: phospho-SLP-76 (Ser376) in Jurkat cells; assay: Phospho-SLP-76 (Ser376) Homogeneous Time Resolved Fluorescence (HTRF) assay in Jurkat cells; assay type: cell-based; conditions: Homo sapiens, read-out: SLP76 Assay_IC50
Procedure, shortened: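 Jurkat cells pre-treated 30 min with compounds (10 μM to 0.1 nM, 11-point, 0.1% DMSO), then stimulated with 200 μg/mL F(ab)2-complexed anti-CD3 (UCHT1) for 15 min at 37 °C. Lysate phospho-SLP-76 detected by HTRF after overnight antibody incubation; IC50 from four-parameter fit.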

[2] = biological target: human full-length recombinant HPK1 (Homo sapiens (Human), UniProt Q92918); assay: HPK1 biochemical enzyme assay, microfluidic mobility shift assay (MSA); conditions: read-out: HPK1 Enzyme Assay_Ki
[3] = 30 min pre-treatment, anti-CD3 stimulation 15 min, HTRF
[4] = mobility shift assay, 75 μM ATP, Morrison equation, tight-binding competitive inhibition
[5] = Phospho-SLP-76 (Ser376) HTRF, anti-CD3 stimulation

Chain of human full-length recombinant HPK1 (Q92918 whole entry): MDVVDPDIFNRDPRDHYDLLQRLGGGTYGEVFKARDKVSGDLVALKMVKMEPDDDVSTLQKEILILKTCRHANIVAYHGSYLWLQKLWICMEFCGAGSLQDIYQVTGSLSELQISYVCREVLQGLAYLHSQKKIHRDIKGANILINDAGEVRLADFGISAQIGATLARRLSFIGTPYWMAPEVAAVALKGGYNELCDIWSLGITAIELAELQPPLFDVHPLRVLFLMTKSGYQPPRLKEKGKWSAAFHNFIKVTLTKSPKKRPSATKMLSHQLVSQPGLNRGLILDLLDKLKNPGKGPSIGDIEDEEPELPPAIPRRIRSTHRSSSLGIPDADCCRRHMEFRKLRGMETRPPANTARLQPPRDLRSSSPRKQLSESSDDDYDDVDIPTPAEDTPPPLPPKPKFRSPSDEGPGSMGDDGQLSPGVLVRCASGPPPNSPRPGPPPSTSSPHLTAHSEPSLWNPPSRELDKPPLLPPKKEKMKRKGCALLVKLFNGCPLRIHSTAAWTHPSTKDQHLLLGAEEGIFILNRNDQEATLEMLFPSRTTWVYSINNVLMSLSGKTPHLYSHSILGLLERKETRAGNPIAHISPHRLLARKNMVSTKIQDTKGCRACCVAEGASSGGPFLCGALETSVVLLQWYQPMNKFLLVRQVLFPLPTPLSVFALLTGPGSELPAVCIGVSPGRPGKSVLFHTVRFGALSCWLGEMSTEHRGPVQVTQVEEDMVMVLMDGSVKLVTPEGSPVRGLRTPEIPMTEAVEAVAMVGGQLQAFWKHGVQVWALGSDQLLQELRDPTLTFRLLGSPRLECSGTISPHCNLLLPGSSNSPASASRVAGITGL

Compound | pIC50 [1, 3] | pKi [2, 4] | pIC50 [1, 5] | pKi ([2]; HPK1 mobility shift assay)
CCCn1cnnc1-c1cccc(N2Cc3c(cc(N(C)CC)nc3CN)C2=O)n1 [Example 56, 4-(aminomethyl)-6-[ethyl(methyl)amino]-2-[6-(4-propyl-4H-1,2,4-triazol-3-yl)pyridin-2-yl]-2,3-dihydro-1H-pyrrolo[3,4-c]pyridin-1-one hydrochloride] | 6.86 | 9.47 |  | 
CCCn1cnnc1-c1cccc(N2Cc3c(cc(N(C)CC)nc3CNC)C2=O)n1 [Example 59, 6-[ethyl(methyl)amino]-4-[(methylamino)methyl]-2-[6-(4-propyl-4H-1,2,4-triazol-3-yl)pyridin-2-yl]-2,3-dihydro-1H-pyrrolo[3,4-c]pyridin-1-one] | 7.23 | 9.72 |  | 
CCN(C)c1cc2c(c(CN)n1)CN(c1cccc(-c3nncn3CC)n1)C2=O [Example 60, 4-(aminomethyl)-6-[ethyl(methyl)amino]-2-[6-(4-ethyl-4H-1,2,4-triazol-3-yl)pyridin-2-yl]-2,3-dihydro-1H-pyrrolo[3,4-c]pyridin-1-one] | 7.15 | 9.77 |  | 
CCn1c(C)nnc1-c1cccc(N2Cc3c(cc(N4CCC[C@H]4C)nc3CN)C2=O)n1 [Example 61, 4-(aminomethyl)-2-[6-(4-ethyl-5-methyl-4H-1,2,4-triazol-3-yl)pyridin-2-yl]-6-[(2R)-2-methylpyrrolidin-1-yl]-2,3-dihydro-1H-pyrrolo[3,4-c]pyridin-1-one] | 7.06 | 9.74 |  | 
CCc1nnc(-c2cccc(N3Cc4c(cc(N5CCC[C@H]5C)nc4CNC)C3=O)n2)n1CC [Example 66, 2-[6-(4,5-diethyl-4H-1,2,4-triazol-3-yl)pyridin-2-yl]-4-[(methylamino)methyl]-6-[(2R)-2-methylpyrrolidin-1-yl]-2,3-dihydro-1H-pyrrolo[3,4-c]pyridin-1-one] | 6.97 | 9.28 |  | 
C[C@@H]1CCCN1c1cc2c(c(CN)n1)CN(c1cccc(N3C(=O)OC[C@@H]3CF)n1)C2=O [Example 68, 4-(aminomethyl)-2-{6-[(4R)-4-(fluoromethyl)-2-oxo-1,3-oxazolidin-3-yl]pyridin-2-yl}-6-[(2R)-2-methylpyrrolidin-1-yl]-2,3-dihydro-1H-pyrrolo[3,4-c]pyridin-1-one] | 7.30 | > 10.15 |  | 
CNCc1nc(N(C)C(C)C)cc2c1CN(c1cccc(N3C(=O)OC[C@@H]3C)n1)C2=O [Example 74, 4-[(methylamino)methyl]-2-{6-[(4S)-4-methyl-2-oxo-1,3-oxazolidin-3-yl]pyridin-2-yl}-6-[methyl(propan-2-yl)amino]-2,3-dihydro-1H-pyrrolo[3,4-c]pyridin-1-one] |  |  | 7.11 | 10.22
CCN(CC)c1cc2c(c(CN)n1)CN(c1cccc(-c3nncn3CC)n1)C2=O [Example 75, 4-(aminomethyl)-6-(diethylamino)-2-[6-(4-ethyl-4H-1,2,4-triazol-3-yl)pyridin-2-yl]-2,3-dihydro-1H-pyrrolo[3,4-c]pyridin-1-one] |  |  | 6.93 | 9.28
CCNc1cc2c(c(CNC)n1)CN(c1cccc(-c3nncn3CC)n1)C2=O [Example 76, 6-(ethylamino)-2-[6-(4-ethyl-4H-1,2,4-triazol-3-yl)pyridin-2-yl]-4-[(methylamino)methyl]-2,3-dihydro-1H-pyrrolo[3,4-c]pyridin-1-one] |  |  | 6.23 | 9.19
CC(C)N(C)c1cc2c(c(CN)n1)CN(c1cccc(-c3nncn3C(C)C)n1)C2=O [Example 79, 4-(aminomethyl)-6-[methyl(propan-2-yl)amino]-2-{6-[4-(propan-2-yl)-4H-1,2,4-triazol-3-yl]pyridin-2-yl}-2,3-dihydro-1H-pyrrolo[3,4-c]pyridin-1-one] |  |  | 7.32 | > 10.30
CCCn1cnnc1-c1cccc(N2Cc3c(cc(N(CC)CC)nc3CNC)C2=O)n1 [Example 80, 6-(diethylamino)-4-[(methylamino)methyl]-2-[6-(4-propyl-4H-1,2,4-triazol-3-yl)pyridin-2-yl]-2,3-dihydro-1H-pyrrolo[3,4-c]pyridin-1-one] |  |  | 6.74 | 9.80
CNCc1nc(N(C)C(C)C)cc2c1CN(c1cccc(-c3nncn3C)n1)C2=O [Example 81, 4-[(methylamino)methyl]-6-[methyl(propan-2-yl)amino]-2-[6-(4-methyl-4H-1,2,4-triazol-3-yl)pyridin-2-yl]-2,3-dihydro-1H-pyrrolo[3,4-c]pyridin-1-one] |  |  | 6.39 | 9.24
CCCn1cnnc1-c1cccc(N2Cc3c(cc(N(C)C(C)C)nc3CN)C2=O)n1 [Example 82, 4-(aminomethyl)-6-[methyl(propan-2-yl)amino]-2-[6-(4-propyl-4H-1,2,4-triazol-3-yl)pyridin-2-yl]-2,3-dihydro-1H-pyrrolo[3,4-c]pyridin-1-one] |  |  | 7.02 | 9.92
CCN(c1cc2c(c(CNC)n1)CN(c1cccc(-c3nncn3CC)n1)C2=O)C(C)C [Example 84, 6-[ethyl(propan-2-yl)amino]-2-[6-(4-ethyl-4H-1,2,4-triazol-3-yl)pyridin-2-yl]-4-[(methylamino)methyl]-2,3-dihydro-1H-pyrrolo[3,4-c]pyridin-1-one] |  |  | 6.86 | 9.85
CC1(c2cc3c(c(CN)n2)CN(c2cccc(N4C(=O)OC[C@@H]4CF)n2)C3=O)CC1 [Example 85, 4-(aminomethyl)-2-{6-[(4R)-4-(fluoromethyl)-2-oxo-1,3-oxazolidin-3-yl]pyridin-2-yl}-6-(1-methylcyclopropyl)-2,3-dihydro-1H-pyrrolo[3,4-c]pyridin-1-one] |  |  | 6.46 | 8.95
NCc1nc(C2CC2)cc2c1CN(c1cccc(N3C(=O)OC[C@@H]3CF)n1)C2=O [Example 86, 4-(aminomethyl)-6-cyclopropyl-2-{6-[(4R)-4-(fluoromethyl)-2-oxo-1,3-oxazolidin-3-yl]pyridin-2-yl}-2,3-dihydro-1H-pyrrolo[3,4-c]pyridin-1-one] |  |  | 6.19 | 8.52

Next, values leading:

pIC50 [1, 3] | pKi [2, 4] | pIC50 [1, 5] | pKi ([2]; HPK1 mobility shift assay) | Compound
7.03 | 9.85 |  |  | CNCc1nc(N)cc2c1CN(c1cccc(-c3nncn3C(C)C)n1)C2=O [Example 50, 6-amino-4-[(methylamino)methyl]-2-{6-[4-(propan-2-yl)-4H-1,2,4-triazol-3-yl]pyridin-2-yl}-2,3-dihydro-1H-pyrrolo[3,4-c]pyridin-1-one]
6.31 | 9.21 |  |  | CNCc1nc(N2[C@H](C)C[C@@H]2C)cc2c1CN(c1cccc(-c3nncn3C(C)C)n1)C2=O [Example 53, 6-[(2R,4S)-2,4-dimethylazetidin-1-yl]-4-[(methylamino)methyl]-2-{6-[4-(propan-2-yl)-4H-1,2,4-triazol-3-yl]pyridin-2-yl}-2,3-dihydro-1H-pyrrolo[3,4-c]pyridin-1-one]
7.13 | 9.68 |  |  | CCC(CC)n1cnnc1-c1cccc(N2Cc3c(cc(C4(C)CC4)nc3CNC)C2=O)n1 [Example 57, 4-[(methylamino)methyl]-6-(1-methylcyclopropyl)-2-{6-[4-(pentan-3-yl)-4H-1,2,4-triazol-3-yl]pyridin-2-yl}-2,3-dihydro-1H-pyrrolo[3,4-c]pyridin-1-one]
6.99 | 9.80 |  |  | CC[C@H](C)n1cnnc1-c1cccc(N2Cc3c(cc(C4(C)CC4)nc3CNC)C2=O)n1 [Example 58, 2-(6-{4-[(2S)-butan-2-yl]-4H-1,2,4-triazol-3-yl}pyridin-2-yl)-4-[(methylamino)methyl]-6-(1-methylcyclopropyl)-2,3-dihydro-1H-pyrrolo[3,4-c]pyridin-1-one]
6.94 | 9.46 |  |  | CNCc1nc(C2(C)CC2)cc2c1CN(c1cccc(-c3nncn3C3CCC3)n1)C2=O [Example 65, 2-[6-(4-cyclobutyl-4H-1,2,4-triazol-3-yl)pyridin-2-yl]-4-[(methylamino)methyl]-6-(1-methylcyclopropyl)-2,3-dihydro-1H-pyrrolo[3,4-c]pyridin-1-one]
 |  | 6.61 | 9.28 | CNCc1nc(C2CCC2)cc2c1CN(c1cccc(-c3nncn3C(C)C)n1)C2=O [Example 69, 6-cyclobutyl-4-[(methylamino)methyl]-2-{6-[4-(propan-2-yl)-4H-1,2,4-triazol-3-yl]pyridin-2-yl}-2,3-dihydro-1H-pyrrolo[3,4-c]pyridin-1-one]
 |  | 7.21 | 9.80 | CCN(c1cc2c(c(CNC)n1)CN(c1cccc(-c3nncn3C(C)C)n1)C2=O)C(C)C [Example 70, 6-[ethyl(propan-2-yl)amino]-4-[(methylamino)methyl]-2-{6-[4-(propan-2-yl)-4H-1,2,4-triazol-3-yl]pyridin-2-yl}-2,3-dihydro-1H-pyrrolo[3,4-c]pyridin-1-one]
 |  | 7.40 | 9.74 | CCn1cnnc1-c1cccc(N2Cc3c(cc(N(C)C(C)C)nc3CNC)C2=O)n1 [Example 71, 2-[6-(4-ethyl-4H-1,2,4-triazol-3-yl)pyridin-2-yl]-4-[(methylamino)methyl]-6-[methyl(propan-2-yl)amino]-2,3-dihydro-1H-pyrrolo[3,4-c]pyridin-1-one]
 |  | 6.51 | 9.14 | CNCc1nc(NC(C)C)cc2c1CN(c1cccc(-c3nncn3C(C)C)n1)C2=O [Example 78, 4-[(methylamino)methyl]-6-(propan-2-ylamino)-2-{6-[4-(propan-2-yl)-4H-1,2,4-triazol-3-yl]pyridin-2-yl}-2,3-dihydro-1H-pyrrolo[3,4-c]pyridin-1-one]
 |  | 5.18 | 7.45 | CNCc1nc(C2(C)CC2)cc2c1CN(c1ccc(F)c(-c3nncn3C(C)C)n1)C2=O [Example 83, 2-{5-fluoro-6-[4-(propan-2-yl)-4H-1,2,4-triazol-3-yl]pyridin-2-yl}-4-[(methylamino)methyl]-6-(1-methylcyclopropyl)-2,3-dihydro-1H-pyrrolo[3,4-c]pyridin-1-one]
